Molecules are shown by their SMILES.

We go through 14 compounds from US5475022A, “Phenyl or heteroaryl and tetrahydronaphthyl substituted diene compounds having retinoid like biological activity” (Allergan, Inc., priority 1993, dated 1995).

One assay concerns ornithine decarboxylase (ODC). In words: inhibition of TPA induction of ornithine decarboxylase (ODC). Conditions: TPA-induced ODC activity, read-out: % ODC Inhibition at 1.0 μM concentration. In kind it is cell-based. From the text: The retinoid-like activity of these compounds is confirmed through the classic measure of retinoic acid activity involving the effects of retinoic acid on ornithine decarboxylase. The original work on the correlation between retinoic acid and decrease in cell proliferation was done by Verma & Boutwell, Cancer Research, 1977, 37,2196-2201. That reference discloses that ornithine decarboxylase (ODC) activity increased precedent to polyamine biosynthesis. It has been established elsewhere that increases in polyamine synthesis can be correlated or associated with cellular proliferation. Thus, if ODC activity could be inhibited, cell hyperproliferation could be modulated. Although all causes for ODC activity increases are unknown, it is known that 12-0-tetradecanoylphorbol-13-acetate (TPA) induces ODC activity.
In the case of `C/C(=C\C=C\c1occc1C(=O)O)c1ccc2c(c1)C(C)(C)CCC2(C)C` [Compound 13, 2-[4-Methyl-4-(5,5,8,8,-tetramethyl-5,6,7,8,-tetrahydronaphthalen)-2-yl-1E,3E-butadien-1-yl] furan 3-carboxylic acid], the inhibition at 1 µM was determined as 60%.
On the same count and under the same terms, next, `C/C(=C\C=C\c1ccccc1C(=O)O)c1cc2c(cc1C)C(C)(C)CCC2(C)C` [Compound 7, 2-[4-Methyl-4-(3,5,5,8,8-pentamethyl-5,6,7,8-tetrahydronaphthalene)-2-yl-1E,3E-butadien-1-yl]benzoic acid]: 79%; `C/C(=C/C=C/c1ccccc1C(=O)O)c1cc2c(cc1C)C(C)(C)CCC2(C)C` [Compound 8, 2-[4-Methyl4-(3,5,5,8,8-pentamethyl-5,6,7,8-tetrahydronaphthalene)-2-yl-1E,3Z-butadien-1-yl]benzoic acid]: 75%.
In the case of `CCOC(=O)c1occc1/C=C\C=C(/C)c1cc2c(cc1C)C(C)(C)CCC2(C)C` [Compound 19, Ethyl 3-[4-methyl-4-(3,5,5,8,8-pentamethyl-5,6,7,8-tetrahydronaphthalene)-2-yl-1Z, 3E-butadiene-1-yl]-2-furanoate], the inhibition at 1 µM amounted to 73%.
On the same count and under the same terms, next, `COC(=O)c1ccoc1/C=C/C=C(\C)c1ccc2c(c1)C(C)(C)CCC2(C)C` [Compound 11, Methyl 2-[4-methyl-4-(5,5,8,8,-tetramethyl5,6,7,8,-tetrahydronaphthalen)-2-yl-1E,3E-butadien-1-yl] furan 3-carboxylate]: 26%.
The same measure, in the same setting: next, `C/C(=C/C=C/c1occc1C(=O)O)c1ccc2c(c1)C(C)(C)CCC2(C)C` [Compound 14, 2-[4-Methyl-4-(5,5,8,8,-tetramethyl-5,6,7,8-tetrahydronaphthalen)-2-yl-1E,3Z-butadien-1-yl] furan 3-carboxylic acid]: 72%; `COC(=O)c1ccoc1/C=C/C=C(\C)c1cc2c(cc1C)C(C)(C)CCC2(C)C` [Compound 1, Methyl 2-[4-methyl-4-(3,5,5,8,8-pentamethyl-5,6,7,8-tetrahydronaphthalene)-2-yl-1E,3E-butadien-1-yl]-furan-3-carboxylate]: 37%; `C/C(=C/C=C/c1occc1C(=O)O)c1cc2c(cc1C)C(C)(C)CCC2(C)C` [Compound 9, 2-[4-Methyl-4-(3,5,5,8,8-pentamethyl-5,6,7,8-tetrahydronaphthalene)-2-yl-1E,3Z-butadien-1-yl]-furan-3-carboxylic acid]: 56%.
Still for that read-out and setting: next, `COC(=O)c1ccoc1/C=C/C=C(/C)c1ccc2c(c1)C(C)(C)CCC2(C)C` [Compound 12, Methyl 2-[4-methyl-4-(5,5,8,8, -tetramethyl-5,6,7,8, -tetrahydronaphthalen)2-yl-1E, 3Z-butadien-1-yl] furan 3-carboxylate]: 42%.
Turning to `C/C(=C\C=C\c1ccsc1C(=O)O)c1cc2c(cc1C)C(C)(C)CCC2(C)C` [Compound 17, 3-[4-Methyl-4-(3,5,5,8,8,-pentamethyl-5,6,7,8,-tetrahydronaphthalen)-2-yl-1E,3 E-butadien-1-yl]thiophene 2-carboxylic acid], the inhibition at 1 µM is 79%.
Consider `COC(=O)c1ccccc1/C=C/C=C(\C)c1cc2c(cc1C)C(C)(C)CCC2(C)C` [Compound 24, Methyl 2-[4-methyl-4-(3,5,5,8,8-pentametyl-5,6,7,8-tetrahydronaphthalene)-2-yl-1E,3E-butadien-1-yl]benzoate], for which the inhibition at 1 µM amounted to 88%.
Consider `COC(=O)c1ccoc1/C=C/C=C(/C)c1cc2c(cc1C)C(C)(C)CCC2(C)C` [Compound 2, Methyl 2-[4-methyl-4-(3,5,5,8,8-pentamethyl-5,6,7,8-tetrahydronaphthalene)-2-yl-1E,3Z-butadien-1-yl]-furan-3-carboxylate], for which the inhibition at 1 µM amounted to 36%.

The same assay, now with this note: value determined by linear regression of data collected at 30, 100, 300 nanomolar concentrations, read-out: % ODC Inhibition at 1.0 μM concentration.
With `COC(=O)c1ccccc1/C=C/C=C(\C)c1ccc2c(c1)C(C)(C)CCC2(C)C` [Compound 6, Methyl 2-[4-methyl-4-(5,5,8,8-tetramethyl-5,6,7,8-tetrahydronaphthalene)-2-yl-1E,3E-butadien-1-yl]benzoate], the inhibition at 1 µM stood at 100%.

The next assay concerns ornithine decarboxylase (ODC).
Test: not given
Conditions: literature statement; cited from earlier work.
Turning to `CC1=C(/C=C/C(C)=C/C=C/C(C)=C/C(=O)O)C(C)(C)CCC1` [Retinoic acid], the “inhibition of induction of ODC activity by TPA” value is “inhibits this induction of ODC activity by TPA”.
